# Where two headings read alike, the source gives them in different places.
# Experiments:
# [1] = Plasma concentrations of estradiol and unconjugated estrone (HPLC with MS/MS); format: in vivo, human (women); settings: for Geometric Mean Concentration of E2 (plasma): Baseline; for concentration at 4 weeks / concentration at 8 weeks / concentration at 12 weeks: female, human, plasma, topical, read-out: Geometric Mean Concentration of E2 (plasma)
# Method: A single 10 mL sample of whole blood was collected at baseline, Weeks 4, 8, and 12. To eliminate the possibility of sample contamination, only the specimens obtained from the arm not used for estradiol application were reported.
# [2] = tested on: menopausal women; assay: Placebo-controlled study: severity of moderate to severe hot flushes; format: in vivo, human (women); set-up: key to Severity of Moderate to Severe Hot Flushes, Mean Change from Baseline / Severity of Moderate to Severe Hot Flushes, Mean: 0 none, 1 mild, 2 moderate, 3 severe hot flush intensity; settings: for Severity of Moderate to Severe Hot Flushes, Mean: Baseline
# Method: (§1) This study was a multi-centred, double-blind, placebo-controlled, parallel group comparison. A total of 351 subjects were enrolled at 78 sites in the United States.
# (§2) A two-week, medication free, Pre-Treatment Phase was used to determine subject vasomotor symptoms. Efficacy assessments included the number and intensity of hot flushes per day, and severity of vulvar and vaginal atrophy symptoms.
# (§3) The three treatment groups comprised the following dosages: • A 0.375 mg dose (1.25 g of gel @ 0.03%) applied to one arm and 0.9 g of placebo gel applied on the other arm once daily for 12 weeks; • A 0.27 mg dose (0.9 g of gel @ 0.03%) applied to one arm and 1.25 g of placebo gel applied on the other arm once daily for 12 weeks; and • 0.9 g of placebo gel applied to one arm and 1.25 g of placebo gel applied on the other arm once daily for 12 weeks.
# (§4) The Treatment Phase was 12 weeks. A pre-treatment period of 2 weeks was used to initially evaluate each subject's vasomotor symptoms.
# (§5) All data were analyzed using the approach of Observed Cases (OC).
# (§6) For all continuous primary and secondary efficacy parameters, descriptive statistics tables and 2-way ANCOVA with fixed factors treatment and centre, and baseline value as covariate were provided. The interaction of treatment and centre was investigated using 2-way ANCOVA with fixed factors treatment, centre, and treatment-by-centre interaction with baseline value as covariate. To control the Type-I error rate, a step-down procedure using contrasts was performed to compare each treatment group to the placebo group. First, the group with the 0.375 mg dose was compared against placebo at the α=0.05 level (2-sided). If the null hypothesis was rejected, the group with the 0.27 mg dose was compared to placebo at the α=0.05 level (2-sided). Graphs were used to characterize the dose response. If the assumptions of the model were not met, then van Elteren's test with centre as the stratification variable was used in the step-down procedure. For categorical data, Fisher's exact test was used to compare treatment groups.
# (§7) The study assessed the following variables: • Mean change in frequency of moderate to severe vasomotor symptoms from baseline to Week 4; • Mean change in frequency of moderate to severe vasomotor symptoms from baseline to Week 12; • Mean change in severity of moderate to severe vasomotor symptoms from baseline to Week 4; • Mean change in severity of moderate to severe vasomotor symptoms from baseline to Week 12; • Mean change in frequency of moderate-to-severe hot flushes at each week; • Mean change in severity of moderate-to-severe hot flushes at each week; • Mean change from baseline to Week 12 in the moderate to severe symptom of vulvar and vaginal atrophy that has been identified by the subject as being the most bothersome to her (vaginal pain, dryness, irritation/itching, bleeding, dysuria);
# Severity of moderate to severe vasomotor symptoms was defined as (2*number of moderate hot flushes+3*number of severe hot flushes)/total number of moderate and severe hot flushes.
# As with frequency, if less than 10 days of data were available for the baseline period, the baseline severity was considered missing.
# On a daily basis, the subject recorded the number of hot flushes and rated the intensity of each based on a four-point scale as follows: • 0 (none) • 1 (mild) Sensation of heat without perspiration • 2 (moderate) Sensation of heat with perspiration, but the subject was able to continue with their activity • 3 (severe) Sensation of heat with sweating, sufficiently severe to result in discontinuation of activity Assessment of Vulvar and Vaginal Atrophy Symptom Severity
# [3] = cited from earlier work
# [4] = tested on: menopausal women; assay: Placebo-controlled study: moderate to severe symptom of vulvar and vaginal atrophy; format: in vivo, human (women)
# Method: as §1, §2, §3, §4, §5, §6, §7
# The severity of symptoms of vulvar and vaginal atrophy (vaginal pain associated with sexual activity, dryness, irritation/itching, bleeding associated with sexual activity, or dysuria) that was identified by the subject as moderate to severe and most bothersome was assessed at Week 1, Week 12, or Early Termination using the following rating scale: […]
# [5] = 0.27 mg dose (N = 115), Baseline
# [6] = 0.27 mg dose (N = 115), Endpoint
smiles,measurement,setting,value
"C[C@]12CC[C@@H]3c4ccc(O)cc4CC[C@H]3[C@@H]1CC[C@@H]2O [estradiol, 17-beta estradiol]",Geometric Mean Concentration of E2 (plasma),[1]; 0.270 mg estradiol dose,4.2 pg/mL
same,Geometric Mean Concentration of E2 (plasma),[1]; 0.375 mg estradiol dose,3.7 pg/mL
same,concentration at 4 weeks,[1]; 0.27 mg,0.0142 ng/mL
same,concentration at 8 weeks,[1]; 0.27 mg,0.0156 ng/mL
same,concentration at 12 weeks,[1]; 0.27 mg,0.014 ng/mL
same,concentration at 4 weeks,[1]; 0.375 mg,0.0183 ng/mL
same,concentration at 8 weeks,[1]; 0.375 mg,0.0158 ng/mL
same,concentration at 12 weeks,[1]; 0.375 mg,0.0214 ng/mL
same,"Week at which statistical significance vs placebo was achieved, severity of moderate to severe hot flushes",[2]; 0.27 mg dose,8 Week
same,"Severity of Moderate to Severe Hot Flushes, Mean",[2]; 0.27 mg dose,2.52
same,"Severity of Moderate to Severe Hot Flushes, Mean Change from Baseline","[2]; 0.27 mg dose, Week 1",−0.02
same,"Severity of Moderate to Severe Hot Flushes, Mean Change from Baseline","[2]; 0.27 mg dose, Week 2",−0.10
same,"Severity of Moderate to Severe Hot Flushes, Mean Change from Baseline","[2]; 0.27 mg dose, Week 3",−0.21
same,"Severity of Moderate to Severe Hot Flushes, Mean Change from Baseline","[2]; 0.27 mg dose, Week 4",−0.26
same,"Severity of Moderate to Severe Hot Flushes, Mean Change from Baseline","[2]; 0.27 mg dose, Week 5",−0.29
same,"Severity of Moderate to Severe Hot Flushes, Mean Change from Baseline","[2]; 0.27 mg dose, Week 6",−0.36
same,"Severity of Moderate to Severe Hot Flushes, Mean Change from Baseline","[2]; 0.27 mg dose, Week 7",−0.40
same,"Severity of Moderate to Severe Hot Flushes, Mean Change from Baseline","[2]; 0.27 mg dose, Week 8",−0.46
same,"Severity of Moderate to Severe Hot Flushes, Mean Change from Baseline","[2]; 0.27 mg dose, Week 9",−0.60
same,"Severity of Moderate to Severe Hot Flushes, Mean Change from Baseline","[2]; 0.27 mg dose, Week 10",−0.58
same,"Severity of Moderate to Severe Hot Flushes, Mean Change from Baseline","[2]; 0.27 mg dose, Week 11",−0.66
same,"Severity of Moderate to Severe Hot Flushes, Mean Change from Baseline","[2]; 0.27 mg dose, Week 12",−0.70
same,"Week at which statistical significance vs placebo was achieved, severity of moderate to severe hot flushes",[2]; 0.375 mg dose,4 Week
same,"Severity of Moderate to Severe Hot Flushes, Mean",[2]; 0.375 mg dose,2.52
same,"Severity of Moderate to Severe Hot Flushes, Mean Change from Baseline","[2]; 0.375 mg dose, Week 1",0.00
same,"Severity of Moderate to Severe Hot Flushes, Mean Change from Baseline","[2]; 0.375 mg dose, Week 2",−0.10
same,"Severity of Moderate to Severe Hot Flushes, Mean Change from Baseline","[2]; 0.375 mg dose, Week 3",−0.19
same,"Severity of Moderate to Severe Hot Flushes, Mean Change from Baseline","[2]; 0.375 mg dose, Week 4",−0.31
same,"Severity of Moderate to Severe Hot Flushes, Mean Change from Baseline","[2]; 0.375 mg dose, Week 5",−0.35
same,"Severity of Moderate to Severe Hot Flushes, Mean Change from Baseline","[2]; 0.375 mg dose, Week 6",−0.49
same,"Severity of Moderate to Severe Hot Flushes, Mean Change from Baseline","[2]; 0.375 mg dose, Week 7",−0.67
same,"Severity of Moderate to Severe Hot Flushes, Mean Change from Baseline","[2]; 0.375 mg dose, Week 8",−0.59
same,"Severity of Moderate to Severe Hot Flushes, Mean Change from Baseline","[2]; 0.375 mg dose, Week 9",−0.77
same,"Severity of Moderate to Severe Hot Flushes, Mean Change from Baseline","[2]; 0.375 mg dose, Week 10",−0.76
same,"Severity of Moderate to Severe Hot Flushes, Mean Change from Baseline","[2]; 0.375 mg dose, Week 11",−0.89
same,"Severity of Moderate to Severe Hot Flushes, Mean Change from Baseline","[2]; 0.375 mg dose, Week 12",−0.90
same,serum estradiol level,[3]; daily topical 0.75 mg dose of estradiol (1.25 g of hydro-alcoholic gel per day),elevation in the serum estradiol level
same,serum estradiol level,[3]; lower estradiol dose than 0.75 mg,did not achieve similar serum levels
same,Improvement in moderate to severe symptoms of vulvar and vaginal atrophy,[4]; 0.27 mg dose,statistically significant improvement
same,"Symptom of Vulvar and Vaginal Atrophy, number of subjects rated Moderate",[4]; [5],21
same,"Symptom of Vulvar and Vaginal Atrophy, number of subjects rated Severe",[4]; [5],16
same,"Symptom of Vulvar and Vaginal Atrophy, percent of subjects rated Severe",[4]; [5],(13.9%)
same,"Symptom of Vulvar and Vaginal Atrophy, number of subjects rated Mild",[4]; [6],15
same,"Symptom of Vulvar and Vaginal Atrophy, number of subjects rated Moderate",[4]; [6],10
same,"Symptom of Vulvar and Vaginal Atrophy, number of subjects rated None",[4]; [6],6
same,"Symptom of Vulvar and Vaginal Atrophy, number of subjects rated Severe",[4]; [6],5

# — patent US8431557B2, “Treatment of menopause-associated symptoms” (Besins Healthcare Luxembourg SARL, priority 2006, dated 2013)
